A word on the DC50: it is the concentration at which degradation of the target reaches its halfway point.

The test deals with von Hippel-Lindau disease tumor suppressor/GTPase KRas (Homo sapiens, UniProt P01116+P40337, G12D). In words: PROTAC activity at VHL/KRAS G12D mutant in human ASPC1 cells assessed as induction of protein degradation incubated for 24 hrs by HiBiT based Nano-Glo luminescence assay. The format is cell-based. In general terms: The HiBiT peptide binds its large partner to form an active luciferase.
Chain of von Hippel-Lindau disease tumor suppressor/GTPase KRas (P01116 whole entry G12D, stated change not applied): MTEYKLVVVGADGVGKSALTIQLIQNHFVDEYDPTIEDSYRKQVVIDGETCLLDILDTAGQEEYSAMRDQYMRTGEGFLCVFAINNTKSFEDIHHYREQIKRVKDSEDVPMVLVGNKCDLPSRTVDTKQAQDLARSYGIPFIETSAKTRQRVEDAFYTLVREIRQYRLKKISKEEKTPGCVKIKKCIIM
Chain of von Hippel-Lindau disease tumor suppressor/GTPase KRas (P40337 whole entry, stated change not applied): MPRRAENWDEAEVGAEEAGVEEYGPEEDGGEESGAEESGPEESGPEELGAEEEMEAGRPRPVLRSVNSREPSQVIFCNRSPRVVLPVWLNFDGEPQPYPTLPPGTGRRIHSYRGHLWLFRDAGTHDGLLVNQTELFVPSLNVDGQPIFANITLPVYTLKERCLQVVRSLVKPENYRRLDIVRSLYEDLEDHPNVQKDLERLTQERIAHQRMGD
Consider `C#Cc1c(F)ccc2cccc(-c3ncc4c(N5CC6CCC(C5)N6)nc(OC[C@@]56CCCN5[C@H](COC(=O)N5CCC7(CCC(CCc8ccc9c(c8)n(C)c(=O)n9C8CCC(=O)NC8=O)CC7)CC5)CC6)nc4c3F)c12` (some centres not stated), for which the DC50 is ≥ 100 nM.
The figure for `C#Cc1c(F)ccc2cccc(-c3ncc4c(N5CC6CCC(C5)N6)nc(OC[C@@]56CCCN5[C@H](COC(=O)N5CC(CN7CCN(c8ccc9c(c8)n(C)c(=O)n9C8CCC(=O)NC8=O)CC7)C5)CC6)nc4c3F)c12` (some centres not stated) is ≤ 100 nM.
With `C#Cc1c(F)ccc2cc(O)cc(-c3ncc4c(N5CC6CCC(C5)N6)nc(OC[C@@]56CCCN5[C@H](COC(=O)N5CCC(OCc7ccc8c(c7)n(C)c(=O)n8C7CCC(=O)NC7=O)CC5)CC6)nc4c3F)c12` (some centres not stated) the figure was ≥ 100 nM.
With `C#Cc1c(F)ccc2cccc(-c3ncc4c(N5CC6CCC(C5)N6)nc(OC[C@@]56CCCN5[C@H](COC(=O)N5CCC(OCCCCCCc7ccc8c(c7)n(C)c(=O)n8C7CCC(=O)NC7=O)CC5)CC6)nc4c3F)c12` (some centres not stated) the figure was ≤ 100 nM; with `C#Cc1c(F)ccc2cccc(-c3ncc4c(N5CC6CCC(C5)N6)nc(OC[C@@]56CCCN5[C@H](COC(=O)N5CCC(CC7CCN(Cc8ccc9c(c8)n(C)c(=O)n9C8CCC(=O)NC8=O)CC7)CC5)CC6)nc4c3F)c12` (some centres not stated), ≤ 100 nM.
In the case of `C#Cc1c(F)ccc2cccc(-c3ncc4c(N5CC6CCC(C5)N6)nc(OC[C@@]56CCCN5[C@H](COC(=O)N5CCC(OC7CCN(Cc8ccc9c(c8)n(C)c(=O)n9C8CCC(=O)NC8=O)CC7)CC5)CC6)nc4c3F)c12` (some centres not stated), the DC50 was ≤ 100 nM.
The figure for `C#Cc1c(F)ccc2cc(O)cc(-c3ncc4c(N5CC6CCC(C5)N6)nc(OC[C@@]56CCCN5[C@H](COC(=O)N5CCC(OCCCc7ccc8c(c7)n(C)c(=O)n8C7CCC(=O)NC7=O)CC5)CC6)nc4c3F)c12` (some centres not stated) is ≤ 100 nM.
The figure for `C#Cc1c(F)ccc2cccc(-c3ncc4c(N5CC6CCC(C5)N6)nc(OC[C@@]56CCCN5[C@H](COC(=O)N5CCN(C7CCN(Cc8ccc9c(c8)n(C)c(=O)n9C8CCC(=O)NC8=O)CC7)CC5)CC6)nc4c3F)c12` (some centres not stated) is ≤ 100 nM; for `C#Cc1c(F)ccc2cccc(-c3ncc4c(N5CC6CCC(C5)N6)nc(OC[C@@]56CCCN5[C@H](COC(=O)N5CCC(CN7CCC(c8ccc9c(c8)n(C)c(=O)n9C8CCC(=O)NC8=O)CC7)CC5)CC6)nc4c3F)c12` (some centres not stated) it is ≤ 100 nM.
With `C#Cc1c(F)ccc2cccc(-c3ncc4c(N5CC6CCC(C5)N6)nc(OC[C@@]56CCCN5[C@H](COC(=O)N5CCC(OCCC#Cc7ccc8c(c7)n(C)c(=O)n8C7CCC(=O)NC7=O)CC5)CC6)nc4c3F)c12` (some centres not stated) the figure was ≤ 100 nM; with `C#Cc1c(F)ccc2cccc(-c3ncc4c(N5CC6CCC(C5)N6)nc(OC[C@@]56CCCN5[C@H](COC(=O)N5CCC(OCCCc7ccc8c(c7)n(C)c(=O)n8C7CCC(=O)NC7=O)CC5)CC6)nc4c3F)c12` (some centres not stated), ≤ 100 nM; with `C#Cc1c(F)ccc2cccc(-c3ncc4c(N5CC6CCC(C5)N6)nc(OC[C@@]56CCCN5[C@H](COC(=O)N5CCC(OC7CN(Cc8ccc9c(c8)n(C)c(=O)n9C8CCC(=O)NC8=O)C7)CC5)CC6)nc4c3F)c12` (some centres not stated), ≤ 100 nM.

(Values after ChEMBL document CHEMBL6071205, “A New Frontier in Targeted Therapies: Harnessing PROTACs and Advanced Delivery Systems” (ACS Med Chem Lett, 2024).)
